How the values were obtained:
Assay type in all cases: biochemical
[1] = tested on: monomeric Chymohelizyme 1; experiment: Inhibition of substrate hydrolysis by Chymohelizyme 1 by specific chymotrypsin inhibitors
Source text: Inclusion of indole at a concentration equal to that of the substrate ZTONP caused approximately 70% inhibition of substrate hydrolysis.

[2] = Hydrolysis of ATEE (esterase activity), followed by titration; details: pH 8.1, 0.05 molar sodium chloride solution
Experimental: Hydrolysis of ATEE at pH 8.1 in 0.05 molar sodium chloride solution followed classical Michaelis-Menten kinetics; kM=1.0 mM and kcat=0.042/sec(corresponding values for chymotrypsin are 0.7 mM; 3.0/sec), showing an activity approximately 1% that of chymotrypsin for this substrate.
Hydrolysis of BTEE and ZTONP were performed as described (Meth. Enzymol. volume XIX, Academic Press, New York, 1970, pp. 38-41). The progress of the reaction was followed spectrophotometrically. Progress of the hydrolysis of ATEE was followed by titration.

[3] = Hydrolysis of ZTONP (esterase activity), followed spectrophotometrically; details: initial turnover number
Experimental: Kinetic studies of purified Chymohelizyme 1 were performed using ATEE, BTEE or ZTONP as the substrate.
The progress of the reaction was followed spectrophotometrically. Progress of the hydrolysis of ATEE was followed by titration.

Compound	inhibition of hydrolysis of substrates by monomeric Chymohelizyme 1 [1]	Km [2]	kcat [2]	turnover number [3]	inhibition of substrate hydrolysis ([1]; inhibitor at a concentration equal to that of the substrate ZTONP)
Cc1ccc(O)cc1 [p-cresol]	inhibited				
chymotrypsin		700 µM	3.0 s⁻¹	300 s⁻¹	
c1ccc2[nH]ccc2c1 [indole]	inhibited				approximately 70%

Source: patent US5304631A, “Synthetic helizyme enzymes” (University of Colorado Foundation, Inc., priority 1990, dated 1994)
